Reference: paper PMC7508162 (Frontiers in Pharmacology, 2020)
Like-named read-outs stand apart in the source and are kept apart here.

What was measured:
NTPDase8 = molecular target: T1, NTPDase8 (Homo sapiens, UniProt Q5MY95); conditions: read-out: Km (NTPDase8); substrate ATP; ref Kukulski et al., 2005; cited from earlier work
T1 sequence (Q5MY95 1-495): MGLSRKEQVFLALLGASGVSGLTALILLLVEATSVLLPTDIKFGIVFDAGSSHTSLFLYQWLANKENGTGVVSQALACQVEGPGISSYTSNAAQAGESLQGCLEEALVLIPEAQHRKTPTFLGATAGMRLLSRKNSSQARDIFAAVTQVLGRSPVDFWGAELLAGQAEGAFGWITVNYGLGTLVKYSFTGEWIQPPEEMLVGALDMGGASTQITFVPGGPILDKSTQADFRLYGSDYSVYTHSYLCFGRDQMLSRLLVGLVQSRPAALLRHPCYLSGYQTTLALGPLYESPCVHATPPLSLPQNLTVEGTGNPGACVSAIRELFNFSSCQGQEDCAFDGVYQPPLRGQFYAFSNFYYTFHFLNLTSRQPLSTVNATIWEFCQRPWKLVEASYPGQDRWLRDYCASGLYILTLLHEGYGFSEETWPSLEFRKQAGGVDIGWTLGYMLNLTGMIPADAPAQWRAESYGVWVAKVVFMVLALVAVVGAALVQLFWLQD

NTPDase3 = molecular target: T2, NTPDase3 (Homo sapiens, UniProt O75355); conditions: read-out: Km (NTPDase3); substrate ATP; ref Kukulski et al., 2005; cited from earlier work
T2 sequence (O75355 1-529): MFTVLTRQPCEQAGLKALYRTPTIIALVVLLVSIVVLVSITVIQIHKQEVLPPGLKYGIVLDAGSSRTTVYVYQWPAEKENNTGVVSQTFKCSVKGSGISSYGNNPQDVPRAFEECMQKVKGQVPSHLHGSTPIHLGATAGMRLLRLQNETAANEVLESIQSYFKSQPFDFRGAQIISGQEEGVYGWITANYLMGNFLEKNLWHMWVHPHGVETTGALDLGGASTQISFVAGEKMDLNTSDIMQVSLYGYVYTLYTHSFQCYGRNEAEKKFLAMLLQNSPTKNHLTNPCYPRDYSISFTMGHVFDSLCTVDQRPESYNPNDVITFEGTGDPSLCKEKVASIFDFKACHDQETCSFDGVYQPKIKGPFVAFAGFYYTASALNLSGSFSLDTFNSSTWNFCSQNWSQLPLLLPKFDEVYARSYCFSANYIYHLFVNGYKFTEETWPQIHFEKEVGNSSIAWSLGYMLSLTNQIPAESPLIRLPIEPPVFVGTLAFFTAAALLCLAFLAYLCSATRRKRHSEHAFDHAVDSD

human CD39 [1] = molecular target: T3, human CD39 (Homo sapiens, UniProt P49961); conditions: read-out: Km (CD39); substrate ATP; ref Kukulski et al., 2005; cited from earlier work
T3 sequence (P49961 1-510): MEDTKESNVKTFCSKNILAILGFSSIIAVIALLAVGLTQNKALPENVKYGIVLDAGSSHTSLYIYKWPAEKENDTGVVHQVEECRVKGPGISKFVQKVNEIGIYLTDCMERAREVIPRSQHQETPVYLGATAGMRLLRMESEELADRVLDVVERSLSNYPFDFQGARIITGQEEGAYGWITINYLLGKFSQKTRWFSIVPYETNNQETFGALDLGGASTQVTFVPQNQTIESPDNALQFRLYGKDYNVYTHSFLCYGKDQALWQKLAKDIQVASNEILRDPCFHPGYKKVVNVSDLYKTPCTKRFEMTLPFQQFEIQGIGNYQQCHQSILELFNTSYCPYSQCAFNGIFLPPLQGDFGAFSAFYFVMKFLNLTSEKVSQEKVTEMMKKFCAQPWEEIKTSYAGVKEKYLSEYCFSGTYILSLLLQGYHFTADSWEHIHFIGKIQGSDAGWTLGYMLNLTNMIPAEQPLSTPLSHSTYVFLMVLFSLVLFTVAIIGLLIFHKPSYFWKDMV

NTPDase2 = molecular target: T4, NTPDase2 (Homo sapiens, UniProt Q9Y5L3); conditions: read-out: Km (NTPDase2); substrate ATP; ref Kukulski et al., 2005; cited from earlier work
T4 sequence (Q9Y5L3 1-495): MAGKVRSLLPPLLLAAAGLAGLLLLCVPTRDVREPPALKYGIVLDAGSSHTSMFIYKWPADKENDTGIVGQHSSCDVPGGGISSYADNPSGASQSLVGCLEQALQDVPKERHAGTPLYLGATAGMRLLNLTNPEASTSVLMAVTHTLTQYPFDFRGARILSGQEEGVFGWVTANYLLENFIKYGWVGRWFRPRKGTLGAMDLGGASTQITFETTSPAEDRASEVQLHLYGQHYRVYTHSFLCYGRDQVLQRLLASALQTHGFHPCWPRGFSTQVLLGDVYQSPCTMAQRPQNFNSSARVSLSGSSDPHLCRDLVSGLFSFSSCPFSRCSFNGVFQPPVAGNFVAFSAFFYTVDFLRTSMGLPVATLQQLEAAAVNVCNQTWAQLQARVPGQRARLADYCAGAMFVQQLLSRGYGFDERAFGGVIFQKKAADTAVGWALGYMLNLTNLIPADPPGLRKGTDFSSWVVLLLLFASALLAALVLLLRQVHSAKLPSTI

human CD39 [2] = molecular target: T3, human CD39; assay: Fluorescence capillary electrophoresis assay for CD39; format: biochemical; design: Human umbilical cord membrane preparations (250 ng) natively expressing high amounts of CD39; from tissue; host or cells: human umbilical cord membranes; conditions: for Ki: fluorescent substrate PSB-017621A 0.5 µM, human umbilical cord membrane preparation, n = 3, Cheng-Prusoff, read-out: Ki ± SEM
Protocol: (§1) They were minced and homogenized with a polytron in 95 mM NaCl, 0.1 mM phenylmethylsulfonyl fluoride (PMSF), and 45 mM Tris solution, pH 7.6. […] The pellets were resuspended in 5 mM Tris buffer solution, pH 8.0 and 10% glycerol. All purification steps were performed at 4°C. The preparations were kept at −80°C.
For inhibition screening, three independent experiments were performed. […] The reaction buffer contained 10 mM HEPES, 2 mM CaCl2, 1 mM MgCl2, pH 7.4. The samples were incubated at 37°C for 4 min, and the enzymatic reaction was terminated by heating at 90°C for 5 min. The solution was then diluted 1:20 with reaction buffer to perform separation of nucleotides by capillary electrophoresis (CE) followed by laser-induced fluorescence (LIF) detection. […] Three independent experiments were performed, and curves were calculated by GraphPad Prism 8 software (GraphPad software, San Diego, CA, USA).
Analysis was carried out using a P/ACE MDQ capillary electrophoresis system (Beckman Instruments, Fullerton, CA, USA). The separation was performed in a polyacrylamide-coated capillary [30 cm (10 cm effective length) × 50 µm (id), × 360 µm (od)]. Before each run, the capillary was rinsed with the background electrolyte [50 mM phosphate buffer (pH 6.5)] for 1 min at 30 psi. Samples were electrokinetically injected by applying a voltage of -6 kV for 30 s at the capillary outlet, and the fluorescent nucleotide derivatives were separated by voltage application of -15 kV. […] Data collection and peak area analysis were performed by the P/ACE MDQ software 32 KARAT obtained from Beckman Coulter (Fullerton, CA, USA).

human CD39 [3] = molecular target: T3, human CD39; assay: Malachite green assay for CD39 (natural substrate ATP); format: biochemical; design: Human umbilical cord membrane preparations (250 ng) natively expressing high amounts of CD39; from tissue; host or cells: human umbilical cord membranes; conditions: natural substrate ATP 50 µM, n = 3, read-out: Ki ± SEM (converted)
Protocol: as §1
The reaction buffer contained 10 mM HEPES, 2 mM CaCl2, 1 mM MgCl2, pH 7.4 in a final volume of 50 μl in transparent 96-well half area plates. For CD39 (NTPDase1), we made use of human umbilical cord membranes preparations which express high levels of the enzyme. For the other human NTPDase isoenzymes, we had to resort to recombinant expression. […] The amount of enzyme preparation was adjusted to ensure 10–20% of substrate conversion. […] The released (inorganic) phosphate was quantified after 20 min of gentle shaking at 25°C by measuring the absorption of the malachite green-phosphomolybdate complex at 600 nm using a BMG PheraStar FS plate reader (BMG Labtech GmbH, Ortenberg, Germany).
% Inhibition=(B−T)/B*100%
where B is the average corrected absorption of the positive control without inhibitor and T the corrected absorption in the presence of test compound.
Full concentration-inhibition curves were determined with inhibitor concentrations ranging from 0.1 to 300 µM in the presence of 2% DMSO. Three independent experiments were performed (n = 3) and curves were calculated by the GraphPad Prism 8 software. The Ki value was calculated using the Cheng-Prusoff equation for competitive inhibitors: […]

rat CD39 = molecular target: rat CD39; design: method as in Baqi et al., 2009; conditions: Figure 2, ref Baqi et al., 2009, read-out: Ki (reported potency); cited from earlier work
human CD39 [4] = molecular target: T3, human CD39; design: Human umbilical cord membrane preparations (250 ng) natively expressing high amounts of CD39; from tissue; host or cells: human umbilical cord membranes; method as in Lee et al., 2018; conditions: fluorescent substrate of CD39; ref Lee et al., 2018; cited from earlier work
human CD39 [5] = molecular target: T3, human CD39; design: Human umbilical cord membrane preparations (250 ng) natively expressing high amounts of CD39; from tissue; host or cells: human umbilical cord membranes; conditions: Figure 2, ref Crack et al., 1995, Müller et al., 2006, Lévesque et al., 2007, Baqi et al., 2009, Lecka et al., 2013, Lee et al., 2015, Kanwal et al., 2019, read-out: Ki (reported potency); cited from earlier work

In the case of `Nc1ncnc2c1ncn2[C@@H]1O[C@H](COP(=O)(O)OP(=O)(O)OP(=O)(O)O)[C@@H](O)[C@H]1O` [ATP], the Km (NTPDase8) is given as 46 µM, the Km (NTPDase3) is given as 75 µM and the Km (human CD39 [1]) is given as 17 µM. The Km (NTPDase2) was 70 µM.
In the case of `CCCCSc1nc2c(N(CC)CC)ncnc2n1[C@@H]1O[C@H](COP(=O)(O)OP(=O)(O)C(Br)(Br)P(=O)(O)O)[C@@H](O)[C@H]1O` [Compound 37, (Dibromo((((((2R,3S,4R,5R)-5-(8-(butylthio)-6-(diethylamino)-9H-purin-9-yl)-3,4-dihydroxy-tetrahydrofuran-2-yl)methoxy)(hydroxy)phosphoryl)oxy)-(hydroxy)phosphoryl)methyl)phosphonic Acid], the Ki (human CD39 [2]) is reported as 7.48 ± 1.29 µM and the Ki (human CD39 [3]) is reported as 5.98 µM.
With `Nc1ncnc2c1ncn2[C@@H]1O[C@H](COP(=O)(O)OP(=O)(O)C(F)(F)P(=O)(O)O)[C@@H](O)[C@H]1O` [Compound 40, (((((((2R,3S,4R,5R)-5-(6-Amino-9H-purin-9-yl)-3,4-dihydroxytetrahydrofuran-2-yl)methoxy)-(hydroxy)-phosphoryl)oxy)(hydroxy)phosphoryl)difluoromethyl)-phosphonic Acid] the Ki (human CD39 [2]) was 10.6 ± 0.4 µM, the “IC50 (in words)” value (human CD39 [2]; human CD39) was “low micromolar range” and the “fold less potent than dibromo-derivative 38 at CD39” value (human CD39 [2]; ratio of Ki values, fluorescence CE assay) was “about 2 fold”. The Ki (human CD39 [3]) was 4.55 µM.
Work on `Nc1ncnc2c1ncn2[C@@H]1O[C@H](COP(=O)(O)CP(=O)(O)OP(=O)(O)O)[C@@H](O)[C@H]1O` [Compound 41, α,β-Methylene-ATP, reference compound] yielded a Ki (human CD39 [2]) of 0.632 ± 0.024 µM and a Ki (human CD39 [3]) of 7.2 µM.
For `Nc1c(S(=O)(=O)O)cc(Nc2ccc3ccccc3c2)c2c1C(=O)c1ccccc1C2=O` [III, 1-Amino-2-sulfo-4-(2-naphthylamino)-anthraquinone], the Ki (rat CD39) is listed as 0.33 µM.
For `O=C(NCCCCCCNc1ncnc2c1ncn2[C@@H]1O[C@H](COP(=O)(O)OP(=O)(O)OP(=O)(O)O)[C@@H](O)[C@H]1O)c1ccc2c(c1)C(=O)OC21c2ccc(O)cc2Oc2cc(O)ccc21` [PSB-017621A, N^6-[6-(Fluoresceinyl-5′-carboxamido)hexyl]-ATP], the Km (human CD39 [4]) is given as 19.6 µM.
For `Oc1c(Cl)cc(Cl)cc1/C=N/CCc1c[nH]c2ccccc12` [Tryptamine derivative (V)], the Ki (human CD39 [5]) is given as 0.021 µM.
